This note sets out measurements from patent publication US20240246960A1 (adMare Therapeutics Society, priority 2021, published 2024).

Test [1] has as its target T1, DNA-PK phosphorylation at Serine 2056 (Homo sapiens, UniProt P78527).
T1 construct: host or cells: FaDu
As to the kind of experiment: Cellular Assay for Inhibition of DNA-PK Phosphorylation at Serine 2056 (FaDu cells, neocarzinostatin, sandwich ELISA). Format: cell-based. Particulars: Table 1. In a few lines: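 FaDu cells were pretreated with compound (0.3% DMSO) for 1 h, then exposed to neocarzinostatin at 1 μg/mL final for 2 h to induce DSBs. Protein-normalized lysates were assayed by MSD sandwich ELISA for total and pSer2056 DNA-PK. IC50 came from variable-slope fits of % inhibition relative to DMSO and NCS controls.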

For a further test, the target named is T2, DNA-PK (Homo sapiens, UniProt P78527).
T2 construct: purchased Invitrogen PR9107A
As to the kind of experiment: DNA-PK Assay for Biochemical Enzymatic Inhibition (ADP Glo Kinase assay). Particulars: Table 1. In a few lines: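 Human DNA-PK (25 ng) preincubated 15 min with compounds (ten three-fold dilutions) in HEPES pH 7.5, MgCl2, KCl, calf thymus DNA buffer, then substrate 434.4 μM and ATP 64.4 μM (final) for 60 min at room temperature. ADP-Glo luminescence; percent inhibition fitted by four-parameter regression for IC50.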
For orientation: ADP-Glo turns the ADP formed in a reaction into a luminescent signal.

As a reminder, the IC50 is the concentration that inhibits the measured activity by half. With `FC(F)(F)c1cnc(N[C@H]2CC[C@@H](Oc3nc(N4CCOCC4)cc4ncccc34)CC2)nc1` [Compound 34, N-((1s,4s)-4-((7-Morpholino-1,6-naphthyridin-5-yl)oxy)cyclohexyl)-5-(trifluoromethyl)pyrimidin-2-amine], the values for the IC50 (in test [1]; at DNA-PK) were 100 to 1000 nM and 0.5 to 1 nM, respectively.

For `FC(F)Oc1cnc(N[C@H]2CC[C@@H](Oc3nc(N4CCOCC4)cc4ncccc34)CC2)nc1` [Compound 35, 5-(Difluoromethoxy)-N-((1s,4s)-4-((7-morpholino-1,6-naphthyridin-5-yl)oxy)cyclohexyl)pyrimidin-2-amine], the IC50 in test [1] was less than 100 nM; on DNA-PK, 1 to 10 nM.

For the compound `COc1ccc(N[C@H]2CC[C@@H](Oc3nc(N4CCOCC4)cc4ncccc34)CC2)nn1` [Compound 38, 6-methoxy-N-((1s,4s)-4-((7-morpholino-1,6-naphthyridin-5-yl)oxy)cyclohexyl)pyridazin-3-amine], the IC50 in test [1] was less than 100 nM; at DNA-PK it was 0.5 to 1 nM.

For `Nc1cnc(N[C@H]2CC[C@@H](Oc3nc(N4CCOCC4)cc4ncccc34)CC2)nc1` [Compound 43, N2-((1s,4s)-4-((7-morpholino-1,6-naphthyridin-5-yl)oxy)cyclohexyl)pyrimidine-2,5-diamine], the IC50 in test [1] was less than 100 nM; on DNA-PK, less than 0.5 nM.

On to `CS(=O)(=O)Nc1cnc(N[C@H]2CC[C@@H](Oc3nc(N4CCOCC4)cc4ncccc34)CC2)nc1` [Compound 44, N-(2-(((1s,4s)-4-((7-morpholino-1,6-naphthyridin-5-yl)oxy)cyclohexyl)amino)pyrimidin-5-yl)methanesulfonamide], for which the IC50 in test [1] was less than 100 nM; on DNA-PK it was less than 0.5 nM.

For `Oc1cnc(N[C@H]2CC[C@@H](Oc3nc(N4CCOCC4)cc4ncccc34)CC2)nc1` [Compound 45, 2-(((1s,4s)-4-((7-morpholino-1,6-naphthyridin-5-yl)oxy)cyclohexyl)amino)pyrimidin-5-ol], the half-maximal inhibitory concentration (IC50) in test [1] was less than 100 nM; on DNA-PK, 0.5 to 1 nM.

Take `NS(=O)(=O)c1cnc(N[C@H]2CC[C@@H](Oc3nc(N4CCOCC4)cc4ncccc34)CC2)nc1` [Compound 46, 2-(((1s,4s)-4-((7-morpholino-1,6-naphthyridin-5-yl)oxy)cyclohexyl)amino)pyrimidine-5-sulfonamide]: the IC50 in test [1] fell in the range of 1000 to 10000 nM; on DNA-PK, 0.5 to 1 nM.

For the compound `Cc1ccnc(N[C@H]2CC[C@@H](Oc3nc(N4CCOCC4)cc4ncccc34)CC2)n1` [Compound 48, 4-methyl-N-((1s,4s)-4-((7-morpholino-1,6-naphthyridin-5-yl)oxy)cyclohexyl)pyrimidin-2-amine], the half-inhibitory concentration (IC50) was less than 100 nM in test [1] and less than 0.5 nM at DNA-PK.

On to `COc1ccnc(N[C@H]2CC[C@@H](Oc3nc(N4CCOCC4)cc4ncccc34)CC2)n1` [Compound 49, 4-methoxy-N-((1s,4s)-4-((7-morpholino-1,6-naphthyridin-5-yl)oxy)cyclohexyl)pyrimidin-2-amine], for which the IC50 in test [1] fell in the range of 100 to 1000 nM; on DNA-PK, 0.5 to 1 nM.

Consider `NC(=O)c1cnc(N[C@H]2CC[C@@H](Oc3nc(N4CCOCC4)cc4ncccc34)CC2)nc1` [Compound 52, 2-(((1s,4s)-4-((7-morpholino-1,6-naphthyridin-5-yl)oxy)cyclohexyl)amino)pyrimidine-5-carboxamide], for which the IC50 is less than 100 nM in test [1] and less than 0.5 nM on DNA-PK.

For the compound `CN(C)C(=O)c1cnc(N[C@H]2CC[C@@H](Oc3nc(N4CCOCC4)cc4ncccc34)CC2)nc1` [Compound 53, N,N-dimethyl-2-(((1s,4s)-4-((7-morpholino-1,6-naphthyridin-5-yl)oxy)cyclohexyl)amino)pyrimidine-5-carboxamide], the figures for the IC50 (in test [1]; on DNA-PK) were less than 100 nM and 0.5 to 1 nM, respectively.

Consider `c1cnc2cc(N3CCOCC3)nc(O[C@H]3CC[C@@H](Nc4ncnc5ccoc45)CC3)c2c1` [Compound 80a, N-((1s,4s)-4-((7-morpholino-1,6-naphthyridin-5-yl)oxy)cyclohexyl)furo[3,2-d]pyrimidin-4-amine], for which the IC50 was 100 to 1000 nM in test [1] and less than 0.5 nM at DNA-PK.

`Cc1nc(N[C@H]2CC[C@@H](Oc3nc(N4CCOCC4)cc4ncccc34)CC2)c2occc2n1` [Compound 81, 2-methyl-N-((1s,4s)-4-((7-morpholino-1,6-naphthyridin-5-yl)oxy)cyclohexyl)furo[3,2-d]pyrimidin-4-amine]: the IC50 is 100 to 1000 nM in test [1] and less than 0.5 nM on DNA-PK.

`c1cnc2cc(N3CCOCC3)nc(O[C@H]3CC[C@@H](Nc4ncnc5occc45)CC3)c2c1` [Compound 82, N-((1s,4s)-4-((7-morpholino-1,6-naphthyridin-5-yl)oxy)cyclohexyl)furo[2,3-d]pyrimidin-4-amine]: the IC50 was less than 100 nM in test [1] and less than 0.5 nM on DNA-PK.

As for `c1cnc2cc(N3CCOCC3)nc(O[C@H]3CC[C@@H](Nc4ncnc5ccsc45)CC3)c2c1` [Compound 83, N-((1s,4s)-4-((7-morpholino-1,6-naphthyridin-5-yl)oxy)cyclohexyl)thieno[3,2-d]pyrimidin-4-amine], the IC50 in test [1] was less than 100 nM; on DNA-PK it was less than 0.5 nM.

For the compound `c1cnc2cc(N3CCOCC3)nc(O[C@H]3CC[C@@H](Nc4ncc5sccc5n4)CC3)c2c1` [Compound 84, N-((1s,4s)-4-((7-Morpholino-1,6-naphthyridin-5-yl)oxy)cyclohexyl)thieno[3,2-d]pyrimidin-2-amine], the results for the IC50 (in test [1]; on DNA-PK) were 100 to 1000 nM and less than 0.5 nM, respectively.

For the compound `c1cnc2cc(N3CCOCC3)nc(O[C@H]3CC[C@@H](Nc4ncc5[nH]ccc5n4)CC3)c2c1` [Compound 85, N-((1s,4s)-4-((7-Morpholino-1,6-naphthyridin-5-yl)oxy)cyclohexyl)-5H-pyrrolo[3,2-d]pyrimidin-2-amine], the IC50 in test [1] was less than 100 nM; on DNA-PK, less than 0.5 nM.

As for `Cn1ccc2nc(N[C@H]3CC[C@@H](Oc4nc(N5CCOCC5)cc5ncccc45)CC3)ncc21` [Compound 87, 5-Methyl-N-((1s,4s)-4-((7-morpholino-1,6-naphthyridin-5-yl)oxy)cyclohexyl)-5H-pyrrolo[3,2-d]pyrimidin-2-amine], the results for the concentration for half-maximal inhibition (IC50) (in test [1]; on DNA-PK) were less than 100 nM and less than 0.5 nM, respectively.

For `Cn1cnc2cnc(N[C@H]3CC[C@@H](Oc4nc(N5CCOCC5)cc5ncccc45)CC3)nc21` [Compound 88, 9-Methyl-N-((1s,4s)-4-((7-morpholino-1,6-naphthyridin-5-yl)oxy)cyclohexyl)-9H-purin-2-amine], the IC50 in test [1] fell in the range of 100 to 1000 nM; at DNA-PK it was 0.5 to 1 nM.

As for `c1cnc2cc(N3CCOCC3)nc(O[C@H]3CC[C@@H](Nc4ccn5nccc5n4)CC3)c2c1` [Compound 89, N-((1s,4s)-4-((7-Morpholino-1,6-naphthyridin-5-yl)oxy)cyclohexyl)pyrazolo[1,5-a]pyrimidin-5-amine], the IC50 was 100 to 1000 nM in test [1] and 0.5 to 1 nM on DNA-PK.

In the case of `O=C(N[C@H]1CC[C@@H](Oc2nc(N3CCOCC3)cc3ncccc23)CC1)c1ccncc1` [Compound 113, N-((1s,4s)-4-((7-morpholino-1,6-naphthyridin-5-yl)oxy)cyclohexyl)isonicotinamide], the values for the IC50 (in test [1]; at DNA-PK) were less than 100 nM and less than 0.5 nM, respectively.

For the compound `O=C(N[C@H]1CC[C@@H](Oc2nc(N3CCOCC3)cc3ncccc23)CC1)c1cccnc1` [Compound 115, N-((1s,4s)-4-((7-morpholino-1,6-naphthyridin-5-yl)oxy)cyclohexyl)nicotinamide], the results for the IC50 (in test [1]; at DNA-PK) were less than 100 nM and less than 0.5 nM, respectively.

As to `O=C(N[C@H]1CC[C@@H](Oc2nc(N3CCOCC3)cc3ncccc23)CC1)c1ccncn1` [Compound 118, N-((1s,4s)-4-((7-morpholino-1,6-naphthyridin-5-yl)oxy)cyclohexyl)pyrimidine-4-carboxamide], the IC50 in test [1] lay within 100 to 1000 nM; on DNA-PK, 0.5 to 1 nM.

Turning to `O=C(N[C@H]1CC[C@@H](Oc2nc(N3CCOCC3)cc3ncccc23)CC1)c1ccnnc1` [Compound 121, N-((1s,4s)-4-((7-morpholino-1,6-naphthyridin-5-yl)oxy)cyclohexyl)pyridazine-4-carboxamide], the half-inhibitory concentration (IC50) in test [1] was less than 100 nM; on DNA-PK, 0.5 to 1 nM.

With `O=C(N[C@H]1CC[C@@H](Oc2nc(N3CCOCC3)cc3ncccc23)CC1)c1cncnc1` [Compound 122, N-((1s,4s)-4-((7-Morpholino-1,6-naphthyridin-5-yl)oxy)cyclohexyl)pyrimidine-5-carboxamide], the IC50 in test [1] lay within 100 to 1000 nM; on DNA-PK it was 1 to 10 nM.

For `O=C(N[C@H]1CC[C@@H](Oc2nc(N3CCOCC3)cc3ncccc23)CC1)c1ncccn1` [Compound 123, N-((1s,4s)-4-((7-Morpholino-1,6-naphthyridin-5-yl)oxy)cyclohexyl)pyrimidine-2-carboxamide], the IC50 in test [1] was 100 to 1000 nM; on DNA-PK it was less than 0.5 nM.

Consider `O=C(N[C@H]1CC[C@@H](Oc2nc(N3CCOCC3)cc3ncccc23)CC1)c1ccco1` [Compound 132, N-((1s,4s)-4-((7-Morpholino-1,6-naphthyridin-5-yl)oxy)cyclohexyl)furan-2-carboxamide], for which the IC50 in test [1] was less than 100 nM; at DNA-PK, less than 0.5 nM.

Turning to `O=C(N[C@H]1CC[C@@H](Oc2nc(N3CCOCC3)cc3ncccc23)CC1)c1ccc(C(F)(F)F)o1` [Compound 133, N-((1s,4s)-4-((7-Morpholino-1,6-naphthyridin-5-yl)oxy)cyclohexyl)-5-(trifluoromethyl)furan-2-carboxamide], the IC50 in test [1] fell in the range of 100 to 1000 nM; at DNA-PK it was 0.5 to 1 nM.

For the compound `O=C(N[C@H]1CC[C@@H](Oc2nc(N3CCOCC3)cc3ncccc23)CC1)c1nccs1` [Compound 135, N-((1s,4s)-4-((7-morpholino-1,6-naphthyridin-5-yl)oxy)cyclohexyl)thiazole-2-carboxamide], the IC50 in test [1] is 100 to 1000 nM; on DNA-PK it was less than 0.5 nM.
